ChEMBL document CHEMBL2074259, “Mouse reduced in osteosclerosis transporter functions as an organic anion transporter 3 and is localized at abluminal membrane of blood-brain barrier” (J Pharmacol Exp Ther, 2004)
Structures can show the parent of a compound that is named as a salt.

How the values were obtained:
[1] = target: T1, Organic anion transporter 3 (Mus musculus, UniProt O88909); experiment: TP_TRANSPORTER: inhibition of benzylpenicillin uptake by Estradiol sulfate at a concentration of 5uM in Oat3-expressing oocyte cells; assay type: functional, cell-based; parameters: scale not given: the % may be the effect or the level left
T1 sequence (O88909 whole entry): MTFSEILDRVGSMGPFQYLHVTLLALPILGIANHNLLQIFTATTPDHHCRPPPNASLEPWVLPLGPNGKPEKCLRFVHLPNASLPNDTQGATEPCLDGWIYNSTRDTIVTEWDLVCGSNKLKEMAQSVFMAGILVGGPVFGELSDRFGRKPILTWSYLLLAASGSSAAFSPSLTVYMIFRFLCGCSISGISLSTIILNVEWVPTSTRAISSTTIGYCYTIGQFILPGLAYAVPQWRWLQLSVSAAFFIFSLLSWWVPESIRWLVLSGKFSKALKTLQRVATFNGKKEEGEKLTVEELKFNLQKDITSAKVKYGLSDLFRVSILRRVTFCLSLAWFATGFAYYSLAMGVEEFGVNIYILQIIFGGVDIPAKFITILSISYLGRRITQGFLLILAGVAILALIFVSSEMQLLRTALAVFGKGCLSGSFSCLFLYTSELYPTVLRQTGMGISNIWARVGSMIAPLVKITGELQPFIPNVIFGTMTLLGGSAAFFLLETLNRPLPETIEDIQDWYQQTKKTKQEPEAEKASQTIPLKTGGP

[2] = target: T1, Organic anion transporter 3; experiment: TP_TRANSPORTER: inhibition of benzylpenicillin uptake by 5-Hydroxyindole-3-acetic acid at a concentration of 1000uM in Oat3-expressing oocyte cells; assay type: functional, cell-based; parameters: scale not given: the % may be the effect or the level left
[3] = target: T1, Organic anion transporter 3; experiment: (§1) TP_TRANSPORTER: uptake in Oat3-expressing oocyte cells; assay type: functional, cell-based
[4] = target: T1, Organic anion transporter 3; experiment: TP_TRANSPORTER: inhibition of benzylpenicillin uptake by P-aminohippuric acid at a concentration of 1000uM in Oat3-expressing oocyte cells; assay type: functional, cell-based; parameters: scale not given: the % may be the effect or the level left
[5] = target: T2, Oat3 (organic anion transporter 3) (Mus musculus, UniProt O88909); experiment: in vitro; conditions: Oat3-expressing oocytes, probe benzylpenicillin
T2 sequence (O88909 whole entry): T1 sequence (O88909 whole entry)

[6] = target: T1, Organic anion transporter 3; experiment: TP_TRANSPORTER: inhibition of benzylpenicillin uptake by Prostaglandin E2 at a concentration of 1000uM in Oat3-expressing oocyte cells; assay type: functional, cell-based; parameters: scale not given: the % may be the effect or the level left
[7] = target: T2, Oat3 (organic anion transporter 3); experiment: TP_TRANSPORTER: inhibition of benzylpenicillin uptake by Estradiol glucuronide sulfate at a concentration of 5uM in Oat3-expressing oocyte cells; assay type: functional, cell-based; parameters: scale not given: the % may be the effect or the level left; conditions: Oat3-expressing oocytes, probe benzylpenicillin; read-out: Activity
[8] = target: T1, Organic anion transporter 3; experiment: TP_TRANSPORTER: inhibition of benzylpenicillin uptake by Estrone-3-sulfate at a concentration of 1000uM in Oat3-expressing oocyte cells; assay type: functional, cell-based; parameters: scale not given: the % may be the effect or the level left
[9] = target: T1, Organic anion transporter 3; experiment: TP_TRANSPORTER: inhibition of benzylpenicillin uptake by Homovanillic acid at a concentration of 1000uM in Oat3-expressing oocyte cells; assay type: functional, cell-based; parameters: scale not given: the % may be the effect or the level left
[10] = target: T1, Organic anion transporter 3; experiment: TP_TRANSPORTER: inhibition of benzylpenicillin uptake by Indomethacin at a concentration of 1000uM in Oat3-expressing oocyte cells; assay type: functional, cell-based; parameters: scale not given: the % may be the effect or the level left
[11] = target: T1, Organic anion transporter 3; experiment: TP_TRANSPORTER: inhibition of benzylpenicillin uptake in Oat3-expressing oocyte cells; assay type: functional, cell-based; parameters: scale not given: the % may be the effect or the level left
[12] = target: T2, Oat3 (organic anion transporter 3); experiment: TP_TRANSPORTER: inhibition of benzylpenicillin uptake by Indoxyl sulfate at a concentration of 1000uM in Oat3-expressing oocyte cells; assay type: functional, cell-based; parameters: scale not given: the % may be the effect or the level left; conditions: Oat3-expressing oocytes, probe benzylpenicillin; read-out: Activity
[13] = target: T2, Oat3 (organic anion transporter 3); experiment: TP_TRANSPORTER: inhibition of benzylpenicillin uptake by Triiodothyronine at a concentration of 1000uM in Oat3-expressing oocyte cells; assay type: functional, cell-based; parameters: scale not given: the % may be the effect or the level left; conditions: Oat3-expressing oocytes, probe benzylpenicillin; read-out: Activity
[14] = target: T1, Organic anion transporter 3; experiment: TP_TRANSPORTER: inhibition of benzylpenicillin uptake by Methotrexate at a concentration of 1000uM in Oat3-expressing oocyte cells; assay type: functional, cell-based; parameters: scale not given: the % may be the effect or the level left
[15] = target: T2, Oat3 (organic anion transporter 3); experiment: TP_TRANSPORTER: inhibition of benzylpenicillin uptake by Pravastatin at a concentration of 1000uM in Oat3-expressing oocyte cells; assay type: functional, cell-based; parameters: scale not given: the % may be the effect or the level left; conditions: Oat3-expressing oocytes, probe benzylpenicillin; read-out: Activity
[16] = target: T1, Organic anion transporter 3; experiment: TP_TRANSPORTER: inhibition of benzylpenicillin uptake by Probenecid at a concentration of 1000uM in Oat3-expressing oocyte cells; assay type: functional, cell-based; parameters: scale not given: the % may be the effect or the level left
[17] = target: T1, Organic anion transporter 3; experiment: TP_TRANSPORTER: inhibition of benzylpenicillin uptake by Bromosulfophthalein at a concentration of 1000uM in Oat3-expressing oocyte cells; assay type: functional, cell-based; parameters: scale not given: the % may be the effect or the level left
[18] = target: T2, Oat3 (organic anion transporter 3); experiment: TP_TRANSPORTER: inhibition of benzylpenicillin uptake by Urate at a concentration of 1000uM in Oat3-expressing oocyte cells; assay type: functional, cell-based; parameters: scale not given: the % may be the effect or the level left; conditions: Oat3-expressing oocytes, probe benzylpenicillin; read-out: Activity
[19] = target: T1, Organic anion transporter 3; experiment: TP_TRANSPORTER: inhibition of benzylpenicillin uptake by 3'-Azido-3'-deoxythymidine at a concentration of 1000uM in Oat3-expressing oocyte cells; assay type: functional, cell-based; parameters: scale not given: the % may be the effect or the level left
[20] = substrate: CC1(C)S[C@@H]2[C@H](NC(=O)Cc3ccccc3)C(=O)N2[C@H]1C(=O)O; experiment: as §1; assay type: functional, cell-based
[21] = substrate: C[C@]12CC[C@@H]3c4ccc(O)cc4CC[C@H]3[C@@H]1CC[C@@H]2O[C@@H]1O[C@H](C(=O)O)[C@@H](O)[C@H](O)[C@H]1O; experiment: as §1; assay type: functional, cell-based

Question: C[C@]12CC[C@@H]3c4ccc(O)cc4CC[C@H]3[C@@H]1CC[C@H]2O.O=S(=O)(O)O was tested. Which Activity [1] did it give?
Answer: 65.5%

Question: With O=C(O)Cc1c[nH]c2ccc(O)cc12 as the molecule, how does the Activity [2] read?
Answer: 21.7%

Question: Which results are given for Nc1ccc(C(=O)NCC(=O)O)cc1 [AMINOHIPPURIC ACID]?
Answer: Activity [3]: substrate []; Activity [4]: 14.2%

Question: Which Activity [3] does the source give for CN/C(=N/CCSCc1nc[nH]c1C)NC#N [CIMETIDINE] here?
Answer: substrate []

Question: And the activity at 1000 µM [5]?
Answer: 6.88%

Question: For CCCCC[C@H](O)/C=C/[C@H]1[C@H](O)CC(=O)[C@@H]1C/C=C\CCCC(=O)O [DINOPROSTONE], which Activity [6] is on record?
Answer: 0.101%

Question: C[C@]12CC[C@@H]3c4ccc(OS(=O)(=O)O)cc4CC[C@H]3[C@@H]1CC[C@@H]2O[C@@H]1O[C@H](C(=O)O)[C@@H](O)[C@H](O)[C@H]1O [ESTRADIOL GLUCURONIDE SULFATE] was tested. Which activity at 5 µM [7] did it give?
Answer: 62.4%

Question: Which Activity [8] does the source give for C[C@]12CC[C@@H]3c4ccc(OS(=O)(=O)O)cc4CC[C@H]3[C@@H]1CCC2=O [ESTRONE SULFURIC ACID] here?
Answer: 11.4%

Question: And the Activity [3]?
Answer: substrate []

Question: How did the Activity [3] turn out when O=C(O)CCCC(=O)O [GLUTARATE] was run?
Answer: substrate []

Question: What does the source list for COc1cc(CC(=O)O)ccc1O [HOMOVANILLIC ACID]?
Answer: Activity [3]: substrate []; Activity [9]: 40.9%

Question: For COc1ccc2c(c1)c(CC(=O)O)c(C)n2C(=O)c1ccc(Cl)cc1 [INDOMETHACIN], which Activity [10] is on record?
Answer: 1.32%

Question: What about the Activity [3] of the same molecule?
Answer: substrate []

Question: How did the Activity [11] turn out when O=C(O)[C@H]1O[C@@H](Oc2c[nH]c3ccccc23)[C@H](O)[C@@H](O)[C@@H]1O [INDOXYL GLUCURONIDE] was run?
Answer: 72.3%

Question: Which results are given for O=S(=O)(O)Oc1c[nH]c2ccccc12 [INDOXYL SULFATE]?
Answer: activity at 1000 µM [12]: 21.9%; Activity [3]: substrate []

Question: For N[C@@H](Cc1cc(I)c(Oc2ccc(O)c(I)c2)c(I)c1)C(=O)O [LIOTHYRONINE], which activity at 1000 µM [13] is on record?
Answer: 39.8%

Question: What does the source list for CN(Cc1cnc2nc(N)nc(N)c2n1)c1ccc(C(=O)N[C@@H](CCC(=O)O)C(=O)O)cc1 [METHOTREXATE]?
Answer: Activity [3]: substrate []; Activity [14]: 48.4%

Question: With CC[C@H](C)C(=O)O[C@H]1C[C@H](O)C=C2C=C[C@H](C)[C@H](CC[C@@H](O)C[C@@H](O)CC(=O)O)[C@H]21 [PRAVASTATIN] as the molecule, how does the activity at 1000 µM [15] read?
Answer: 2.85%

Question: How did the Activity [16] turn out when CCCN(CCC)S(=O)(=O)c1ccc(C(=O)O)cc1 [PROBENECID] was run?
Answer: 0.625%

Question: For O=C(O)c1ccccc1O [SALICYLIC ACID], which Activity [3] is on record?
Answer: substrate []

Question: O=C1OC(c2ccc(O)c(S(=O)(=O)[O-])c2)(c2ccc(O)c(S(=O)(=O)[O-])c2)c2c(Br)c(Br)c(Br)c(Br)c21.[Na+].[Na+] [SULFOBROMOPHTHALEIN SODIUM] was tested. Which Activity [17] did it give?
Answer: 2.54%

Question: How did the activity at 1000 µM [18] turn out when O=c1[nH]c(=O)c2[nH]c(=O)[nH]c2[nH]1 [URIC ACID] was run?
Answer: 19.9%

Question: Cc1cn([C@H]2C[C@H](N=[N+]=[N-])[C@@H](CO)O2)c(=O)[nH]c1=O [ZIDOVUDINE] was tested. Which Activity [19] did it give?
Answer: 5.13%

B1: Organic anion transporter 3 (Mus musculus) (protein)
chain: T1 sequence (O88909 whole entry)
Question: For B1, which Km [20] is on record?
Answer: 40 µM

Question: What about the Km [21] of the same molecule?
Answer: 5.5 µM
